This is an account of results in patent US12311011B2, “Des-acyl ghrelin and analogs as cancer therapies” (Cornell University, priority 2018, dated 2025).

The subject of one data set is MDA-MB-231 cells. As to the kind of experiment: 3D/2D cell growth assay (cell number, Hoechst). The format is cell-based, human. To be noted: for cell growth in the presence of serum: 0.05-5 μM MK2206, 0.1-10 μM BKM120; for forskolin-stimulated cell growth: 10 μM forskolin, 3D.
For a further data set, the system named is MDA-MB-468 cells. In words: 3D/2D cell growth assay (cell number, Hoechst). The class given is cell-based, human. To be noted: for cell growth in the presence of serum: 0.05-5 μM MK2206, 0.1-10 μM BKM120; for growth of MDA-MB-468 cells: 60 nM KT5720, 1.4 μM SQ22536, 15 μM cAMPs-RP; for forskolin-stimulated cell growth: 10 μM forskolin. As for the experimental part:
(§1) Human BC Cells. Human breast cancer cell lines, MCF7, T47D, ZR75, MDA-MB-231, MDA-MB-468, SKBR3, Hs578T and HEK293T, DU4475 and MDA-MB-157 were purchased from ATCC, USA. Human 4-OH tamoxifen resistant breast cancer cells (LCC2), RKO, RKO-T29, RKO-A19, HCT116, HCT116-HWT, HCT116-HMUT were cultured using methods were performed as described previously (Yun et al., Science 325(5947):1555-9 (2009)). MCF7, MDA-MB-231, MDA-MB-468, MDA-MB-157, Hs578T, HEK293T were grown in DMEM (Invitrogen), supplemented with 10% fetal calf serum (FCS) (Invitrogen), 100U/ml penicillin/streptomycin and 1% sodium pyruvate. ZR75, T47D, SKBR3 and DU4475 were grown in RPMI, supplemented with 10% FCS, 100 U/ml penicillin/streptomycin and 2 mM L-Glutamine (ThermoFisher Scientific). LCC2 were grown in phenol red-free DMEM, supplemented with 10% charcoal stripped serum (CCS; ThermoFisher Scientific), 100 U/ml penicillin/streptomycin and 1% sodium pyruvate. All cell lines were grown at 37° C. with 5% CO2 in a humidified environment. Mycoplasma detection of all cell lines were tested and negative results were observed.
(§2) Cell Growth and Proliferation Assays. 3D culture of a panel of breast cancer and colon cancer cells were seeded at a density of 3,000 cells per well in media containing 30% growth-factor-reduced matrigel or 5 mg/ml Collagen in optical-bottom 96-well plates. Patient-derived breast tumors were first dissociated into single cell suspensions and seeded at a density of 32,000 cells per well in media containing 30% matrigel. […] At the end of the experimental time point, cells were fixed in 100% methanol. The total number of cells, or the number of dead or proliferating cells was assessed using Hoechst, EarlyTox Dead Assay Kit (Molecular Devices), or Click-IT EdU Kit (ThermoFisher Scientific), respectively, and analyzed according to the manufacturer's protocols. Cells were then imaged with >95% well coverage (magnification of 10× with 3×3 tiled images) per field using confocal microscopy. The number of nuclei/Ethidium Homodimer-III+/EdU+ cells were counted using Imaris software (Bitplane).

The next data set deals with MCF7 cells. In words: 3D/2D cell growth assay (cell number, Hoechst). The format is cell-based, human. To be noted: for serum-stimulated growth (cell number): 60 nM KT5720, 1.4 μM SQ22536, 15 μM cAMPs-RP. As for the experimental part:
as §1, §2

The subject of data set [1] is ERK activity in EKAR-transfected MCF7 cells. As to the kind of experiment: ERK activity assay (EKAR FRET reporter). The class given is cell-based, human. To be noted: 10% serum; 3D; time-lapse confocal. As to the method:
ERK Activity Assay: The EKAR FRET-based system was used to monitor ERK activity. Briefly, breast cancer cells were co-transfected with pPBJ-puro-FRET3-EKAR-nls and the pCMV-hyPBase transposase vector, and stably transfected cells selected using FACS for EYFP and ECFP-positive cells. Cells were then cultured in 3D and serum-starved overnight. Prior live cell time-lapse confocal imaging, medium was replaced with 100 pM unacylated ghrelin and 10% serum. Images were acquired following FRET and analyzed using Imaris software. Data normalized to ECFP signal.

In data set [2] the test system is MCF7, MDA-MB-468 and MDA-MB-231 cells. In words: Cy3-tagged UAG binding assay in 3D cultures. The conditions noted are these: 1 μM Cy3-tagged UAG with 10% serum; live confocal imaging. Further details: species or system human. As to the method:
Binding Assays. Cy3-tagged UAG (Pepmic Co, LtD) binding assays were performed in 3D cultures of breast cancer cells. MCF7, […] and MDA-MB231 cells were seeded at a density of 3,000 cells per well in Matrigel in optical-bottom 96-well plates. Cells were serum-starved overnight. Hoechst nuclear stain was added prior to the live cell imaging. 1 μM Cy3-tagged UAG with 10% serum was then added and time-lapse confocal imaging was performed to examine the localization of peptide binding.

The subject of data set [3] is panel of breast cancer cell lines. As to the kind of experiment: 3D cell growth assay in a panel of breast cancer cell lines. The format is cell-based, human. The conditions noted are these: 100 pM. As to the method: as §1, with “All cell lines were grown at 37° C. with 5% CO2 in a humidified environment. Mycoplasma detection of all cell lines were tested and negative results were observed.” left out
Cell Growth and Proliferation Assays. […] The total number of cells, or the number of dead or proliferating cells was assessed using Hoechst, EarlyTox Dead Assay Kit (Molecular Devices), or Click-IT EdU Kit (ThermoFisher Scientific), respectively, and analyzed according to the manufacturer's protocols. […] The number of nuclei/Ethidium Homodimer-III+/EdU+ cells were counted using Imaris software (Bitplane).

A further data set relates to MDA-MB-468 xenografts. As to the kind of experiment: Xenograft in NSG mice. The format is in vivo, mouse. To be noted: 200 μg/kg s.c., 28 days. As to the method:
(§3) Animal Experimental Model. All animal experiments were performed in Monash Animal Research Platform at Hudson Institute for Medical Research and Research Animal Resource Center at Weill Cornell Medicine. Experimental procedures were in accordance with guidelines for Animal Care and Use, approved by Monash University Animal Ethics Committee (MMCA2014/20) and Weill Cornell Medicine IACUC Protocol (REQ00016929). Athymic Balb/c nude, FVB/N (Animal Resources Centre, Australia) and NSG (NOD Scid gamma; NOD.CgPrkdcscidIl2rgtmlwjl/SzJ) mice (The Jackson laboratory and Monash Breeding Colony platform) were used for this study. All mouse procedures were performed with 6-8 weeks old female mice and treatments administered via subcutaneous injection. See additional details included herein for specific in vivo experimental procedures.
Additional studies were also performed in NSG mice. MDA-MB-468 (1×10^6) were injected into the mammary fat pad of 6-week old NSG (immunodeficient) mice. Once the tumor reached a volume of 150 mm^3, the mice were randomized to receive saline (vehicle control) or AZP531 via subcutaneous injection. After 28 days of treatment, the mice were humanely sacrificed by cervical dislocation.

Data set [4] concerns patient-derived breast cancer cells. In words: 3D growth of patient-derived breast cancer cells. The format is cell-based, human.
From the text: Human BC Tissues and Preclinical Patient Derived Xenograft Models. Patient-derived breast tumors (PDX, (Zhang, et al., Cancer Res 15:4885-97 (2013)) and estrogen receptor positive (ER^+) breast tumors were used under IRB-approved protocols (WCM 1410015560 and 1603017108). All patients provided written informed consent. Cells were isolated and maintained in DMEM, supplemented with 10% fetal calf serum (FCS), 100U/ml penicillin/streptomycin and 1% sodium pyruvate (ThermoFisher Scientific). Cells were grown at 37° C. in a humidified atmosphere with 5% CO2. See Method Details for cell growth and proliferation work specific procedures.
as §2

For data set [5] the following is noted: Allas et al. 2016; cited from earlier work.
The test system of another data set is J110 allografts. In words: Syngeneic allograft in FVB/N mice. The format is in vivo, mouse. The conditions noted are these: AZP531 200 μg/kg s.c.; 7 days; FVB mice. As to the method:
as §3
A syngeneic breast cancer mouse model was created in female FVB/N mice. 1.25×10^5 J110 cells were injected into the mammary fat pad of 6-week old FVB (Immunocompetent) mice. […]
Measurement of Apoptotic Cells from Xenograft/Allograft Studies. MCF7, ZR75 and J110 tumor sections post treatment with 100 μg/kg or 200 μg/kg of unacylated ghrelin were assessed using Hoechst nuclear stain and confocal microscopy. Quantification of cells with apoptotic nuclei was performed using Image J.

Where no end group is shown, it is not given here. The star is where a group is joined. Octanoyl = CCCCCCCC(=O)*

Turning to `Nc1cc(C(F)(F)F)c(-c2cc(N3CCOCC3)nc(N3CCOCC3)n2)cn1` [BKM120], the “cell growth in the presence of serum” value in the data set on MDA-MB-231 cells and in the data set on MDA-MB-468 cells (serum) was “inhibited” each time.

As to `CCCCCCOC(=O)[C@]1(O)C[C@@H]2O[C@@]1(C)n1c3ccccc3c3c4c(c5c6ccccc6n2c5c31)C(=O)NC4` [KT5720], the “growth of MDA-MB-468 cells” value in the data set on MDA-MB-468 cells was “suppress the growth”. For the same molecule, in the data set with MCF7 cells (serum), the “serum-stimulated growth (cell number)” value is given as “significant reduction in cell number”.

On to `NC1(c2ccc(-c3nc4ccn5c(=O)[nH]nc5c4cc3-c3ccccc3)cc2)CCC1` [MK2206], for which the forskolin-stimulated cell growth result in the data set with MDA-MB-231 cells and with MDA-MB-468 cells (3D) was “inhibit” each time. Moreover, the “cell growth in the presence of serum” value in the data set with MDA-MB-231 cells and in the data set on MDA-MB-468 cells (serum) was “inhibited” throughout.

Consider `Nc1ncnc2c1ncn2C1CCCO1` (stereo not shown) [SQ22536], for which, in the data set on MDA-MB-468 cells, the “growth of MDA-MB-468 cells” value is listed as “suppress the growth”. The “serum-stimulated growth (cell number)” value in the data set with MCF7 cells (serum) is “significant reduction in cell number”.

For `N#CC(=C(/N)Sc1ccccc1N)/C(C#N)=C(\N)Sc1ccccc1N` [U0126], the forskolin-stimulated cell growth result with MDA-MB-231 cells is recorded as “significant reduction”; with MDA-MB-468 cells (3D), “significant reduction”; with MCF7 cells (10 μM forskolin, 3D), “significant reduction”. Also, the “serum-stimulated EKAR (ERK) activity” value in data set [1] was “inhibited”.

For the molecule `Nc1ncnc2c1ncn2[C@@H]1O[C@@H]2CO[P@@](O)(=S)O[C@H]2[C@H]1O` [cAMPS-RP], the “growth of MDA-MB-468 cells” value in the data set on MDA-MB-468 cells is given as “suppress the growth”. In the data set with MCF7 cells (serum), the “serum-stimulated growth (cell number)” value is on record as “significant reduction in cell number”.

Regarding “Cy3-labeled unacylated ghrelin: Cy3-tagged UAG (Pepmic Co, LtD) used for binding assays (GSSFLSPEHQRVQQRKESKKPPAKLQP; also: Cy3 label, position not given here; UniProt Q9UBU3 24-50, looked up)”, the “binding to responsive and non-responsive cells” value in [2] is recorded as “Binding”.

Take “GSS(n-octanoyl)FLSPEHQRVQQRKESKKPPAKLQPR (GSS(Octanoyl)FLSPEHQRVQQRKESKKPPAKLQPR) [acyl ghrelin]”: the “breast cancer cell growth in serum-stimulated conditions (FIG. 15G)” value in [3] is recorded as “inhibited breast cancer cell growth”.

With “SPEHQRVQ (also: cyclic, ring type not given here) [AZP531]”, the “tumor cell growth (tumor volume)” value in the data set with MDA-MB-468 xenografts and in the data set on J110 allografts was “suppression of cell growth” each time. Further, in [4] (dose-response), the “serum-stimulated growth of patient-derived TNBC cells” value is recorded as “dose-dependent inhibition”. Further, the “potency compared to doxorubicin” value is “greater potency than doxorubicin” in data set [4] (patient-derived TNBC cells, serum); “greater potency than doxorubicin” with MDA-MB-468 cells (3D, serum); “greater potency than doxorubicin” with MCF7 cells (3D, serum). Further, the “extent of cell number reduction” value is “did not reduce cell number beyond that which was stimulated by serum” in data set [4] (patient-derived TNBC cells, serum, unlike doxorubicin); “did not reduce cell number beyond that which was stimulated by serum” with MDA-MB-468 cells (3D, serum, unlike doxorubicin); “did not reduce cell number beyond that which was stimulated by serum” in the data set with MCF7 cells (3D, serum, unlike doxorubicin). For the same molecule, the “serum-stimulated growth of cells” value with MDA-MB-468 cells (3D, serum, dose-response) is “dose-dependent inhibition”; in the data set on MCF7 cells (3D, serum, dose-response), “dose-dependent inhibition”. Moreover, the “pharmacokinetic properties relative to unacylated ghrelin” value in data set [5] is “better pharmacokinetic properties than unacylated ghrelin”. In addition, the safety profile entry in data set [5] was “established safety profile”.
